Source: the supplement of paper PMC10307832

Key:
Test in all cases: relative viability (nuclei count vs DMSO), 5 days (fraction); higher = more cells survive
Vemurafenib + Phenformin = compound: CCCS(=O)(=O)Nc1ccc(F)c(C(=O)c2c[nH]c3ncc(-c4ccc(Cl)cc4)cc23)c1F [Vemurafenib] + N=C(N)NC(=N)NCCc1ccccc1 [Phenformin] (partner 250 µM)
In short: (§1)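 Relative viability is defined as nuclei in treated wells over nuclei in vehicle wells. Duplicate plates were run and medians reported. Lung cancer cell lines in 1536-well plates were dosed by pin tool one day after seeding, with one drug or with a fixed anchor-drug dose plus five library-drug doses (not always all listed) in √10 steps, and nuclei were counted after 5 days.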

OSI-027 + Tozasertib = compound: COc1cccc2cc(-c3nc([C@H]4CC[C@H](C(=O)O)CC4)n4ncnc(N)c34)[nH]c12 [OSI-027] + Cc1cc(Nc2cc(N3CCN(C)CC3)nc(Sc3ccc(NC(=O)C4CC4)cc3)n2)n[nH]1 [Tozasertib] (partner 0.1 µM)
In short: as §1

OSI-027 + Phenformin = compound: COc1cccc2cc(-c3nc([C@H]4CC[C@H](C(=O)O)CC4)n4ncnc(N)c34)[nH]c12 [OSI-027] + N=C(N)NC(=N)NCCc1ccccc1 [Phenformin] (partner 250 µM)
In short: as §1

Alpelisib + Olaparib = compound: Cc1nc(NC(=O)N2CCC[C@H]2C(N)=O)sc1-c1ccnc(C(C)(C)C(F)(F)F)c1 [Alpelisib] + O=C(c1cc(Cc2n[nH]c(=O)c3ccccc23)ccc1F)N1CCN(C(=O)C2CC2)CC1 [Olaparib] (partner 8 µM)
In short: as §1

Cell Line	relative viability (Vemurafenib + Phenformin; first compound 0.03162 µM)	relative viability (Vemurafenib + Phenformin; first compound 0.3162 µM)	relative viability (Vemurafenib + Phenformin; first compound 1 µM)	relative viability (OSI-027 + Tozasertib; first compound 0.01 µM)	relative viability (OSI-027 + Tozasertib; first compound 0.03162 µM)	relative viability (OSI-027 + Tozasertib; first compound 0.1 µM)	relative viability (OSI-027 + Tozasertib; first compound 0.3162 µM)	relative viability (OSI-027 + Tozasertib; first compound 1 µM)	relative viability (OSI-027 + Phenformin; first compound 0.01 µM)	relative viability (OSI-027 + Phenformin; first compound 0.03162 µM)	relative viability (OSI-027 + Phenformin; first compound 0.1 µM)	relative viability (OSI-027 + Phenformin; first compound 0.3162 µM)	relative viability (OSI-027 + Phenformin; first compound 1 µM)	relative viability (Alpelisib + Olaparib; first compound 0.04 µM)	relative viability (Alpelisib + Olaparib; first compound 0.1265 µM)	relative viability (Alpelisib + Olaparib; first compound 0.4 µM)	relative viability (Alpelisib + Olaparib; first compound 1.265 µM)	relative viability (Alpelisib + Olaparib; first compound 4 µM)	relative viability (Vemurafenib + Phenformin; first compound 0.1 µM)
PC-14	0.456	0.218	0.652	0.564	0.577	0.598	0.636	0.505	0.582	0.466	0.488	0.392	0.276	0.263	0.348	0.512	0.276	0.295	
RERF-LC-KJ	0.428	0.398	0.498	0.453	0.531	0.477	0.468	0.385	0.458	0.423	0.383	0.383	0.361	0.878	0.894	0.84	0.655	0.74	0.408
SK-LU-1	0.428	0.384	0.521	0.295	0.331	0.303	0.248	0.241	0.515	0.467	0.447	0.318	0.219	0.491	0.472	0.532	0.378	0.41	0.555
SK-MES-1	0.624	0.622	0.706	0.923	0.842	0.807	0.744	0.402	0.637	0.608	0.64	0.576	0.305	0.616	0.556	0.786	0.622	0.544	0.695
SW 900	0.532	0.476	0.614		0.548	0.493	0.589	0.483		0.45	0.633	0.474	0.347	0.878		0.974	0.914	0.795	0.454
SW 1573	0.386	0.4	0.395	0.186	0.197	0.206	0.142	0.178	0.406	0.286	0.343	0.312	0.191	0.431	0.455	0.406	0.341	0.311	0.308
